Laboratory results as given in patent US4757064A, “Pharmacologically active bicyclic lactams” (Bayer Aktiengesellschaft, priority 1986, dated 1988).

Tests used:
[1] = animal tests; isolated from Clausena Pentaphylla (Roxb.); cited from earlier work
[2] = system: CCl4 intoxicated mice; experiment: Hepatoprotective action in CCl4 intoxicated mice (SGPT); assay type: in vivo, Male Kunming strain mice
Experimental: Male Kunming strain mice weighing 18-22 grams were used throughout the experiments. The compounds to be tested were suspended in 5% Tween 80 and given orally by gavage. The vehicle of 5% Tween 80 solution was administered to control mice via the same route. In in vitro experiments, the compounds were dissolved in dimethylformamide and added directly into the incubation mixture.
Mice were divided into several groups. The control group was administered the vehicle. The other groups were given two doses (250 mg/kg) of compound (I, R=H), at an interval of 8 h, respectively. 10 ml/kg of 0.1% CCl4 in vegetable oil was injected ip 24 h after the second administration of the compound. The mice were fasted for 16 h and sacrificed by decapitation. SGPT and liver lipids were determined. A piece of liver was processed into sections for pathological observation.

[3] = system: retrograde amnesia (rat) under hypoxic conditions; experiment: Retrograde amnesia under hypoxic conditions (passive avoidance, dark compartment, foot shock); assay type: in vivo, Male rats; settings: 100 mg/kg p.o.; 3.8% oxygen and 96.2% nitrogen; retest after 24 hours; groups of 15
Description: Influence of the compound (I, R=H) on retrograde amnesia (rat) under hypoxic conditions.
The apparatus (39 cm long, 21 cm high, and 21 cm wide) consists of two compartments, one made of translucent plastic (29 cm long) and the other one painted black (10 cm long). It has a bottom of spaced metal grids which are connected to a stimulating device delivering 1.6 mA for 20 s.
Both compartments are connected via a door which can be closed.
Male rats (100-120 g body weight) will be placed individually in the large compartment and allowed to explore both compartments for 3 min.
Thereafter, the animals are placed in the small (dark) compartment, the connecting door is closed and the foot shock is delivered. After that the animals are put in an air-tight cage which is perfused by a gas mixture containing 3.8% oxygen and 96.2% nitrogen.
24 hours later the rats are placed again in the bright compartment. The observation time is 3 min.
One experiment is performed in three groups of 15 animals each:
Group A: control group, not exposed to hypoxia
Group B: control group, receiving hypoxia after first training
Group C: treated animals, receiving hypoxia after first training
Evaluation: the times the animals need to enter the dark compartment are measured in seconds. […]
The time difference between the control group B and the treated group C is calculated in percent (C-B=X%). […]

C=CC(C)(C)c1cc2cc3c(cc2oc1=O)OC1(C)CCC(C(C)(C)O)OC1C3 (stereo not shown) [Clausmarins A]
spasmolytic activity (in words) [1]: showed spasmolytic activity

CN1C=Cc2ccccc2C(c2ccccc2)C(O)C1=O (stereo not shown) [Compound (I, R = H)]
SGPT, X ± SE ([2]; 250 mg/kg × 2, 8 h interval, oral by gavage, 10 ml/kg of 0.1% CCl4 ip 24 h after second dose, 9 per group, control 2270 ± 284, P <0.01): 617 ± 166 unit %
effect on elevated SGPT (in words) ([2]; mice intoxicated with CCl4): significantly decreased the elevated SGPT
X, antiamnestic effect (C-B, with A-B=100%) [3]: 34%
